Data as given in PubChem BioAssay AID192 (DTP/NCI, 2004).
Several values for one entry are separate records, joined by “and”; a condition that tells them apart may be missing. Identical values can stand only once. Inconclusive results and toxic doses are left out.

Tested on: BDF1 mice, B16 melanoma ip, median survival T/C
Test: NCI In Vivo Anticancer Drug Screen. Data for tumor model B16 Melanoma (intraperitoneal) in B6D2F1 (BDF1) mice
Conditions: endpoint: median survival time, higher = longer survival
Method in brief: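 The ratio T/C compares compound-treated mice with vehicle-treated controls, using survival or tumor size as the endpoint in a transplantable tumor model.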

[1] = dose: 25.0 mg/kg/injection, schedule: Q01DX009 (ip), vehicle: saline
[2] = dose: 50.0 mg/kg/injection, schedule: Q01DX009 (ip), vehicle: saline
[3] = dose: 100.0 mg/kg/injection, schedule: Q01DX009 (ip), vehicle: saline
[4] = dose: 3.12 mg/kg/injection, schedule: Q01DX009 (ip), vehicle: saline
[5] = dose: 6.25 mg/kg/injection, schedule: Q01DX009 (ip), vehicle: saline
[6] = dose: 12.5 mg/kg/injection, schedule: Q01DX009 (ip), vehicle: saline
[7] = dose: 25.0 mg/kg/injection, schedule: Q01DX009 (ip), vehicle: Klucel (hydroxypropylcellulose) (HPC)
[8] = dose: 25.0 mg/kg/injection, schedule: Q01DX009 (ip), vehicle: saline with Tween-80
[9] = dose: 50.0 mg/kg/injection, schedule: Q01DX009 (ip), vehicle: Klucel (hydroxypropylcellulose) (HPC)
[10] = dose: 50.0 mg/kg/injection, schedule: Q01DX009 (ip), vehicle: saline with Tween-80
[11] = dose: 100.0 mg/kg/injection, schedule: Q01DX009 (ip), vehicle: Klucel (hydroxypropylcellulose) (HPC)
[12] = dose: 100.0 mg/kg/injection, schedule: Q01DX009 (ip), vehicle: saline with Tween-80
[13] = dose: 6.25 mg/kg/injection, schedule: Q01DX009 (ip), vehicle: Klucel (hydroxypropylcellulose) (HPC)
[14] = dose: 12.5 mg/kg/injection, schedule: Q01DX009 (ip), vehicle: Klucel (hydroxypropylcellulose) (HPC)
[15] = dose: 200.0 mg/kg/injection, schedule: Q01DX009 (ip), vehicle: Klucel (hydroxypropylcellulose) (HPC)

CCN(CC)CCOC(=O)c1cccnc1
T/C [1]: 100 % of control | T/C [2]: 105 % of control | T/C [3]: 102 % of control | T/C (dose: 200.0 mg/kg/injection, schedule: Q01DX009 (ip), vehicle: saline): 102 % of control | T/C (dose: 400.0 mg/kg/injection, schedule: Q01DX009 (ip), vehicle: saline): 100 % of control

CC1=[N+](C)C(C)(C)CC(C)O1 (stereo not drawn)
T/C [4]: 91 % of control | T/C [5]: 104 % of control | T/C [6]: 104 % of control | T/C [1]: 91 % of control

NC(=O)C(Br)CBr (stereo not drawn)
T/C [7]: 92 % of control | T/C [8]: 111 % of control | T/C [9]: 105 % of control | T/C [10]: 108 % of control | T/C [11]: 107 % of control | T/C [12]: 106 % of control

CC(C)C1=CC2=CCC3C(C)(C(N)=O)CCCC3(C)C2CC1CC#N (stereo not drawn)
T/C (dose: 100.0 mg/kg/injection, schedule: Q04DX003 (ip), vehicle: saline with Tween-80): 102 % of control | T/C (dose: 400.0 mg/kg/injection, schedule: Q04DX003 (ip), vehicle: saline with Tween-80): 88 % of control

CC(N)Cc1ccccc1 (stereo not drawn)
T/C [4]: 105 % of control | T/C [5]: 100 % of control | T/C [6]: 105 % of control | T/C [1]: 97 % of control | T/C [2]: 97 % of control | T/C [3]: 95 % of control

Clc1sc2ccccc2c1Cl
T/C [13]: 93 % of control | T/C [14]: 92 % of control | T/C [7]: 91 % of control | T/C [9]: 90 % of control

CC(C)C[C@H](NC(=O)[C@@H](O)[C@H](N)Cc1ccc(O)cc1)C(=O)O
T/C (dose: 0.05 mg/kg/injection, schedule: Q01DX009 (oral), vehicle: saline): 97 % of control | T/C (dose: 0.5 mg/kg/injection, schedule: Q01DX009 (oral), vehicle: saline): 97 % of control | T/C (dose: 5.0 mg/kg/injection, schedule: Q01DX009 (oral), vehicle: saline): 101 % of control

O=S1(=O)C=Cc2ccccc21
T/C [9]: 90 % of control | T/C [11]: 88 % of control | T/C [15]: 88 % of control

COc1ccc(NC(=O)Oc2ccc(OC)cc2)cc1
T/C [11]: 90 % of control | T/C [15]: 93 % of control | T/C (dose: 400.0 mg/kg/injection, schedule: Q01DX009 (ip), vehicle: Klucel (hydroxypropylcellulose) (HPC)): 93 % of control

O=[N+]([O-])c1ccc2c(N=Nc3c(O)ccc4ccccc34)c(O)cc(S(=O)(=O)O)c2c1
T/C [12]: 106 % of control | T/C (dose: 200.0 mg/kg/injection, schedule: Q01DX009 (ip), vehicle: saline with Tween-80): 102 % of control

O=C(O)c1ccc(Nc2c3ccccc3nc3ccccc23)cc1
T/C (dose: 8.0 mg/kg/injection, schedule: Q01DX009 (ip), vehicle: other): 103 % of control | T/C (dose: 12.0 mg/kg/injection, schedule: Q01DX009 (ip), vehicle: other): 117 % of control | T/C (dose: 13.0 mg/kg/injection, schedule: Q01DX009 (ip), vehicle: saline with Tween-80): 119 % of control | T/C (dose: 28.0 mg/kg/injection, schedule: Q01DX009 (ip), vehicle: other): 117 % of control | T/C (dose: 42.0 mg/kg/injection, schedule: Q01DX009 (ip), vehicle: other): 160 % of control | T/C (dose: 44.0 mg/kg/injection, schedule: Q01DX009 (ip), vehicle: Klucel (hydroxypropylcellulose) (HPC)): 169 % of control | T/C (dose: 44.0 mg/kg/injection, schedule: Q01DX009 (ip), vehicle: saline with Tween-80): 156 % of control

COc1c2ccoc2nc2c(OC)c3c(cc12)OCO3
T/C [13]: 89 % of control | T/C [14]: 100 % of control | T/C [7]: 95 % of control | T/C [9]: 92 % of control

CC(=O)O[C@@H]1[C@@H](O)C2=C3[C@]4(C)[C@@H]1C(C)(C)C(=O)C[C@@H]4[C@]3(O)[C@H](OC(C)=O)[C@@]1(C[C@@H]1C)C2=O
T/C (dose: 1.0 mg/kg/injection, schedule: Q01DX009 (ip), vehicle: saline with Tween-80): 115 % of control | T/C (dose: 2.0 mg/kg/injection, schedule: Q01DX009 (ip), vehicle: saline with Tween-80): 109 % of control | T/C (dose: 3.12 mg/kg/injection, schedule: Q01DX009 (ip), vehicle: saline with Tween-80): 97 % of control and 101 % of control | T/C (dose: 4.0 mg/kg/injection, schedule: Q01DX009 (ip), vehicle: saline with Tween-80): 102 % of control | T/C (dose: 6.25 mg/kg/injection, schedule: Q01DX009 (ip), vehicle: saline with Tween-80): 104 % of control | T/C (dose: 8.0 mg/kg/injection, schedule: Q01DX009 (ip), vehicle: saline with Tween-80): 114 % of control | T/C (dose: 12.5 mg/kg/injection, schedule: Q01DX009 (ip), vehicle: saline with Tween-80): 119 % of control | T/C [8]: 104 % of control | T/C [10]: 101 % of control
